# Measurements reported in patent US3989598A (priority 1962, dated 1976).
# Structures can show the parent of a compound that is named as a salt.
# Tests used:
# solubility = assay type: physicochemical
# [1] = system: Staphylococcus aureus carbomycin resistant strain; assay: bacteriostatic activity, dilution method in nutritive broth; assay type: cell-based; conditions: read-out: Minimal bacteriostatic concentration
# [2] = system: Bacillus subtilis (strain 3 R 9575, Merck - ATCC 9524); assay: as above; assay type: cell-based; conditions: ATCC9524, read-out: Minimal bacteriostatic concentration
# [3] = system: Alcaligenes faecalis - ATCC 8749; assay: as above; assay type: cell-based; conditions: ATCC8749, read-out: Minimal bacteriostatic concentration
# [4] = system: Mycobacterium smegmatis - ATCC 607; assay: as above; assay type: cell-based; conditions: Mycolicibacterium smegmatis, ATCC607, read-out: Minimal bacteriostatic concentration
# [5] = system: Staphylococcus aureus strain 662 R; assay: as above; assay type: cell-based; conditions: read-out: Minimal bacteriostatic concentration
# [6] = system: Staphylococcus aureus strain B3; assay: as above; assay type: cell-based; conditions: B3, read-out: Minimal bacteriostatic concentration
# Klebsiella pneumoniae = assay: turbidimetric estimation of activity by comparison with a 9865 RP sample of known activity; assay type: cell-based; conditions: unit = smallest quantity in 1 cc. of medium that inhibits growth of Klebsiella pneumoniae
# Excerpt: The following non-limitative Examples illustrate the invention. […] This activity is expressed in units (u) per mg. for solid products and in units per cc. for solution. (The unit is defined as the smallest quantity of product which, dissolved in 1 cc. of an appropriate medium, inhibits the growth of Klebsiella pneumoniae under the conditions in question).
# [7] = subacute toxicity in the mouse (one dose per day for 5 days); conditions: in vivo
# [8] = clinical safety of daunorubicin: heart; assay type: in vivo; conditions: human treatment
# [9] = system: Bacillus megatherium (NRRL B 1125); assay: bacteriostatic activity, dilution method in nutritive broth; assay type: cell-based; conditions: read-out: Minimal bacteriostatic concentration
# [10] = system: acute myeloblastic leukemia; assay: utility in treating certain tumours; assay type: in vivo, human
# [11] = system: Bacillus cereus ATCC 6630; assay: bacteriostatic activity, dilution method in nutritive broth; assay type: cell-based; conditions: ATCC6630, read-out: Minimal bacteriostatic concentration
# [12] = system: Bacillus subtilis or Klebsiella pneumoniae; assay: paper chromatography with bioautography on seeded agar plates; assay type: cell-based; conditions: paper chromatogram
# Excerpt: The antibiotic is chromatographed on Arches No.302 paper impregnated with a pH 4.8 phosphate buffer, with n-butanol saturated with water, using descending development. The chromatogram is developed by bioautography on nutritive agar plates seeded with Bacillus subtilis or Klebsiella pneumoniae.
# Bacillus mycoides = assay: bacteriostatic activity, dilution method in nutritive broth; assay type: cell-based; conditions: read-out: Minimal bacteriostatic concentration
# [13] = system: Streptococcus faecalis (Thiercelin's enterococcus Fac.Phie); assay: as above; assay type: cell-based; conditions: read-out: Minimal bacteriostatic concentration
# [14] = system: Staphylococcus aureus strain Hb; assay: as above; assay type: cell-based; conditions: read-out: Minimal bacteriostatic concentration
# [15] = system: Neisseria catarrhalis (Fac.Phie); assay: as above; assay type: cell-based; conditions: read-out: Minimal bacteriostatic concentration
# [16] = system: Bacillus brevis ATCC 8185; assay: as above; assay type: cell-based; conditions: Brevibacillus brevis, ATCC8185, read-out: Minimal bacteriostatic concentration
# [17] = system: Micrococcus lysodeikticus; assay: as above; assay type: cell-based; conditions: Micrococcus luteus, read-out: Minimal bacteriostatic concentration
# [18] = system: Staphylococcus aureus streptogramin resistant strain; assay: as above; assay type: cell-based; conditions: read-out: Minimal bacteriostatic concentration
# [19] = system: Salmonella paratyphi A (Lacasse, Institut Pasteur); assay: as above; assay type: cell-based; conditions: Salmonella enterica, read-out: Minimal bacteriostatic concentration
# [20] = system: Pasteurella multocida (A. 125 - Institut Pasteur); assay: as above; assay type: cell-based; conditions: read-out: Minimal bacteriostatic concentration
# [21] = system: Streptococcus pyogenes Hemolyticus (strain Dig 7, Instut Pasteur); assay: as above; assay type: cell-based; conditions: read-out: Minimal bacteriostatic concentration
# [22] = acute toxicity in the mouse; conditions: in vivo, sc
# [23] = system: Serratia marcescens (A. 476,Lausanne); assay: bacteriostatic activity, dilution method in nutritive broth; assay type: cell-based; conditions: read-out: Minimal bacteriostatic concentration
# [24] = system: Proteus vulgaris (Fac. Phie); assay: as above; assay type: cell-based; conditions: read-out: Minimal bacteriostatic concentration
# [25] = system: Staphylococcus aureus erythromycin resistant strain; assay: as above; assay type: cell-based; conditions: read-out: Minimal bacteriostatic concentration
# [26] = system: Corynebacterium pseudodiphtericum (Fac.Phie); assay: as above; assay type: cell-based; conditions: read-out: Minimal bacteriostatic concentration
# [27] = system: Staphylococcus aureus actinomycin resistant strain; assay: as above; assay type: cell-based; conditions: read-out: Minimal bacteriostatic concentration
# nephroblastoma = assay: utility in treating certain tumours; assay type: in vivo, human
# [28] = system: Klebsiella pneumoniae - ATCC 10,031; assay: bacteriostatic activity, dilution method in nutritive broth; assay type: cell-based; conditions: ATCC10, read-out: Minimal bacteriostatic concentration
# [29] = system: Sarcina lutea - ATCC 9341; assay: as above; assay type: cell-based; conditions: Micrococcus luteus, ATCC9341, read-out: Minimal bacteriostatic concentration
# lymphosarcoma = assay: utility in treating certain tumours; assay type: in vivo, human
# [30] = system: Bacillus subtilis ATCC 6633; assay: bacteriostatic activity, dilution method in nutritive broth; assay type: cell-based; conditions: ATCC6633, read-out: Minimal bacteriostatic concentration
# Proteus X 19 = assay: as above; assay type: cell-based; conditions: read-out: Minimal bacteriostatic concentration
# [31] = system: Aerobacter aerogenes - ATCC 8308; assay: as above; assay type: cell-based; conditions: Klebsiella aerogenes, ATCC8308, read-out: Minimal bacteriostatic concentration
# [32] = system: Streptococcus faecalis ATCC 9790; assay: as above; assay type: cell-based; conditions: Enterococcus faecalis, ATCC9790, read-out: Minimal bacteriostatic concentration
# [33] = system: Lactobacillus casei - ATCC 7469; assay: as above; assay type: cell-based; conditions: Lacticaseibacillus casei, ATCC7469, read-out: Minimal bacteriostatic concentration
# [34] = system: acute lymphoblastic leukemia; assay: utility in treating certain tumours; assay type: in vivo, human
# [35] = system: Staphylococcus aureus strain 3486 R; assay: bacteriostatic activity, dilution method in nutritive broth; assay type: cell-based; conditions: read-out: Minimal bacteriostatic concentration
# [36] = system: Streptococcus viridans (Institut Pasteur); assay: as above; assay type: cell-based; conditions: read-out: Minimal bacteriostatic concentration
# [37] = system: Bacillus subtilis (strain ZO 5 A, Fac. Phie); assay: as above; assay type: cell-based; conditions: read-out: Minimal bacteriostatic concentration
# blood-forming centers = assay: clinical safety of daunorubicin: blood formation; assay type: in vivo; conditions: human treatment
# [38] = system: Salmonella typhimurium (Institut Pasteur); assay: bacteriostatic activity, dilution method in nutritive broth; assay type: cell-based; conditions: Salmonella enterica, read-out: Minimal bacteriostatic concentration
# [39] = system: Staphylococcus aureus strain 1142 R; assay: as above; assay type: cell-based; conditions: read-out: Minimal bacteriostatic concentration
# [40] = system: Staphylococcus aureus strain Launoy 2; assay: as above; assay type: cell-based; conditions: LAUNOY2, strain Launoy 2 (tetracycline, streptomycin and penicillin resistant), read-out: Minimal bacteriostatic concentration
# [41] = system: Pseudomonas aeruginosa (Bass strain - Institut Pasteur); assay: as above; assay type: cell-based; conditions: read-out: Minimal bacteriostatic concentration
# [42] = system: Salmonella schottmuelleri (paratyphi B) (Fougenc, Institut Pasteur); assay: as above; assay type: cell-based; conditions: read-out: Minimal bacteriostatic concentration
# [43] = system: Bacillus lactis aerogenes (Fac. Phie); assay: as above; assay type: cell-based; conditions: read-out: Minimal bacteriostatic concentration
# [44] = system: Staphylococcus aureus novobiocin resistant strain; assay: as above; assay type: cell-based; conditions: read-out: Minimal bacteriostatic concentration
# [45] = system: Brucella bronchiseptica (CN 387 - Wellcome Institute); assay: microbe, parasite or virus in culture; assay type: cell-based; conditions: Bordetella bronchiseptica, read-out: Minimal bacteriostatic concentration
# [46] = clinical dosage in acute leukaemias: maximum safe dose; conditions: human, in vivo, iv, overall dosage of initial treatment, calculated per kg weight
# Method: Treatment of acute leukaemias must be intensive and of short duration; depending on the case, it comprises one or more courses. In the lymphoblstic forms of leukaemia, the actual trend is to administer a daily dose of 1 mg/kg body weight of two to eight consecutive days, and to cease injections when the leucopenia reaches 1,000 to 1,500 units per cc. It will be recalled that characteristic changes in the medullary cytology fcilitate the conducting of the treatment and help in its adaptation to each particular case. […] It is, moreover, at the end of the aplastic phase, when the number of leucocytes is rising again, that adjustement of the theraputic dose is difficult. When, the day after medication was stopped the leucopenia worsens and the medullary blasts change, it is required to wait for regeneration of the blood before proceeding with a bone marrow test. If the lqucopenia is not accentuated and the medullary cytology remains high with persistence of blastic cells, a second course is undertaken. […] The overall dosage corresponding to the group of courses making up the initial treatment, such as has just been defined, is far from being uniform; calculated per kg weight, it sometimes reaches 20 mg, a dose of around 25 mg being considered the maximum safe dose. […]
# [47] = system: Gaffkya tetragena (Fac.Phie); assay: bacteriostatic activity, dilution method in nutritive broth; assay type: cell-based; conditions: read-out: Minimal bacteriostatic concentration
# [48] = system: Escherichia coli - ATCC 9637; assay: as above; assay type: cell-based; conditions: ATCC9637, read-out: Minimal bacteriostatic concentration
# Excerpt: For each organism, the lowest concentration of substance has been determined which, under the defined condition, prevents all visible development in an appropriate nutritive broth. The results of various determinations are shown in Table VI, wherein the minimal bacteriostatic concentrations are expressed as micrograms of substance per cubic centimeter of experimental medium.
# [49] = system: Diplococcus pneumoniae (strain Til. Institut Pasteur); assay: as above; assay type: cell-based; conditions: Streptococcus pneumoniae, read-out: Minimal bacteriostatic concentration
# [50] = system: Shigella dysenteriae (Shiga L. - Institut Pasteur); assay: microbe, parasite or virus in culture; assay type: cell-based; conditions: read-out: Minimal bacteriostatic concentration
# Sarcina alba (Fac.Phie) = assay: bacteriostatic activity, dilution method in nutritive broth; assay type: cell-based; conditions: read-out: Minimal bacteriostatic concentration
# [51] = system: Staphylococcus aureus strain Launoy 1; assay: as above; assay type: cell-based; conditions: LAUNOY1, strain Launoy 1 (tetracycline, streptomycin, chloramphenicol and penicillin resistant), read-out: Minimal bacteriostatic concentration
# neuroblastoma = assay: utility in treating certain tumours; assay type: in vivo, human
# [52] = system: Mycobacterium phlei (Bacteriological Institute of Lyon); assay: bacteriostatic activity, dilution method in nutritive broth; assay type: cell-based; conditions: Mycolicibacterium phlei, read-out: Minimal bacteriostatic concentration
# [53] = system: Mycobacterium para-smegmatis (A 75 - Lausanne); assay: as above; assay type: cell-based; conditions: read-out: Minimal bacteriostatic concentration
smiles,measurement,setting,value
COc1cccc2c1C(=O)c1c(O)c3c(c(O)c1C2=O)C[C@@](O)(C(C)=O)C[C@@H]3O[C@H]1C[C@H](N)[C@H](O)[C@H](C)O1 [13057 RP daunorubicin hydrochloride],solubility in chloroform,solubility; listed as hydrochloride,slightly soluble
same,solubility in water,solubility; listed as hydrochloride,soluble
"COc1cccc2c1C(=O)c1c(O)c3c(c(O)c1C2=O)C[C@@](O)(C(C)=O)C[C@@H]3O[C@H]1C[C@H](N)[C@H](O)[C@H](C)O1 [13057 RP daunorubicin, daunorubicin]",MIC,[1],5.3 µg/mL
same,MIC,[2],1.8 µg/mL
same,MIC,[3],1.8 µg/mL
same,MIC,[4],1.2 µg/mL
same,MIC,[5],6.3 µg/mL
same,MIC,[6],5.2 µg/mL
same,activity,Klebsiella pneumoniae,160 μ/mg.
same,LD50,[7]; iv,8.75 mg/kg
same,LD50,[7]; sc,13.7 mg/kg
same,cardiac complications,[8],sometimes accompanied by cardiac complications
same,MIC,[9],1.3 µg/mL
same,utility in treating tumours,[10],proved to be of utility
same,MIC,[11],2.2 µg/mL
same,active substance by bioautography,[12],active
same,MIC,Bacillus mycoides,1.8 µg/mL
same,MIC,[13],19 µg/mL
same,MIC,[14],5.3 µg/mL
same,MIC,[15],2.2 µg/mL
same,MIC,[16],1.4 µg/mL
same,solubility in alcohols,solubility; alcohols,soluble
same,solubility in benzene,solubility; benzene,practically insoluble
same,solubility in chloroform,solubility,soluble
same,solubility in diethyl ether,solubility; diethyl ether,practically insoluble
same,solubility in ketones,solubility; ketones,very slighly soluble
same,solubility in water,solubility,very slighly soluble
same,MIC,[17],2.5 µg/mL
same,MIC,[18],1.9 µg/mL
same,MIC,[19],16 µg/mL
same,MIC,[20],1.8 µg/mL
same,MIC,[21],1.6 µg/mL
same,LD50,[22],47 mg/kg
same,MIC,[23],120 µg/mL
same,MIC,[24],> 2000 µg/mL
same,MIC,[25],3.8 µg/mL
same,MIC,[26],1.7 µg/mL
same,MIC,[27],5.8 µg/mL
same,utility in treating tumours,nephroblastoma,proved to be of utility
same,MIC,[28],8.9 µg/mL
same,MIC,[29],1.2 µg/mL
same,utility in treating tumours,lymphosarcoma,proved to be of utility
same,MIC,[30],1.2 µg/mL
same,MIC,Proteus X 19,62 µg/mL
same,MIC,[31],1000 µg/mL
same,MIC,[32],30 µg/mL
same,MIC,[33],1.2 µg/mL
same,utility in treating tumours,[34],proved to be of utility
same,MIC,[35],5.2 µg/mL
same,MIC,[36],43 µg/mL
same,MIC,[37],1.5 µg/mL
same,action on the blood-forming centers,blood-forming centers,depressant action
same,MIC,[38],1000 µg/mL
same,MIC,[39],2.1 µg/mL
same,MIC,[40],4.8 µg/mL
same,MIC,[41],1000 µg/mL
same,MIC,[42],1000 µg/mL
same,MIC,[43],120 µg/mL
same,MIC,[44],3.9 µg/mL
same,MIC,[45],62 µg/mL
same,MTD,[46],~25 mg/kg
same,MIC,[47],6.7 µg/mL
same,MIC,[48],500 µg/mL
same,MIC,[49],0.89 µg/mL
same,MIC,[50],2000 µg/mL
same,MIC,Sarcina alba (Fac.Phie),3.3 µg/mL
same,MIC,[51],7.1 µg/mL
same,utility in treating tumours,neuroblastoma,proved to be of utility
same,MIC,[52],5 µg/mL
same,MIC,[53],2.2 µg/mL
